Measurements published in patent US20130165641A1, “6,11-BRIDGED BIARYL MACROLIDES” (Enanta Pharmaceuticals, Inc., priority 2007, published 2013).
Converted amounts (≈) assume the structure as drawn.

What was measured:
[1] = Tissue accumulation of Compound 1 at the site of infection (infected skin tissue); settings: mouse, po, 50 mg/kg
MRSA = assay: MIC by micro-dilution method, MRSA isolates; type: cell-based, Staphylococcus aureus; settings: MRSA isolate 33591; examples of U.S. Pat. No. 6,878,691 for reference
Outline: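 CLSI M7-A7 broth microdilution with inoculum about 5×10^5 CFU/mL, in broth suited to each isolate. Plates incubated 24 h at 35±2 °C in ambient air. MIC is the lowest concentration without visible growth, judged by optical density.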

H. influenzae = assay: MIC by micro-dilution method, H. influenzae isolates; type: cell-based, Haemophilus influenzae; settings: for MIC H. influenzae 33929: H. influenzae isolate 33929; for MIC H. influenzae 33929 / MIC H. influenzae 49247: examples of U.S. Pat. No. 6,878,691 for reference; for MIC H. influenzae 49247: H. influenzae isolate 49247
Method: Susceptibility tests can be used to quantitatively measure the in vitro activity of an antimicrobial agent against a given bacterial isolate. Compounds are tested for in vitro antibacterial activity by a micro-dilution method. Minimal Inhibitory Concentration (MIC) is determined in 96 well microtiter plates utilizing the appropriate broth medium for the observed bacterial isolates. […] The diluted compounds (2 μl/well) are then transferred into sterile, uninoculated medium (0.2 mL) by use of a 96 fixed tip-pipetting station. The inoculum for each bacterial strain is standardized to approximately 5×10^5 CFU/mL by optical comparison to a 0.5 McFarland turbidity standard. The plates are inoculated with 10 μl/well of adjusted bacterial inoculum. The 96 well plates are covered and incubated at 35+/−2° C. for 24 hours in ambient air environment. Following incubation, plate wells are visually examined by Optical Density measurement for the presence of growth (turbidity). The lowest concentration of an antimicrobial agent at which no visible growth occurs is defined as the MIC.
All in vitro testing follows the guidelines described in the Approved Standards M7-A7 protocol, published by the Clinical Laboratory Standards Institute (CLSI).

Compound | MIC MRSA 33591 (MRSA) [µg/mL] | MIC H. influenzae 33929 (H. influenzae) [µg/mL] | MIC H. influenzae 49247 (H. influenzae) [µg/mL] | MIC (H. influenzae; H. influenzae 33929) [µg/mL] | MIC (H. influenzae; H. influenzae 49247) [µg/mL] | other results
CCC(=O)/N=C1\[C@H](C)C[C@@]2(C)OC/C(=N/OCc3ccc(-c4nc(N)cs4)cn3)CO[C@H]([C@H]1C)[C@](C)(O)[C@@H](CC)OC(=O)[C@@](C)(F)C(=O)[C@H](C)[C@H]2O[C@@H]1O[C@H](C)C[C@H](N(C)C)[C@H]1O [Compound 1] | – | – | – | – | – | AUC(0-inf) ([1]; infected skin abscess): 617000 µg·h/mL; AUC(0-t) ([1]; infected skin abscess): 257000 µg·h/mL; Cmax ([1]; infected skin abscess): 9030 µg/mL; AUC(0-inf) ([1]; plasma): 24500 µg·h/mL; AUC(0-t) ([1]; plasma): 24400 µg·h/mL; Cmax ([1]; plasma): 5120 µg/mL; AUC(0-inf) ([1]; uninfected skin): 66600 µg·h/mL; AUC(0-t) ([1]; uninfected skin): 54600 µg·h/mL; Cmax ([1]; uninfected skin): 3800 µg/mL
CC[C@H]1OC(=O)[C@@](C)(F)C(=O)[C@H](C)[C@@H](O[C@@H]2O[C@H](C)C[C@H](N(C)C)[C@H]2O)[C@@]2(C)C[C@@H](C)C(=NC(C)=O)[C@H](C)[C@@H](OC/C(=N\OCc3ccc(-c4cnccn4)s3)CO2)[C@]1(C)O [Compound 141, reference compound] | 32 (≈ 36.5 µM) | 8 (≈ 9.13 µM) | 8 (≈ 9.13 µM) | – | – | –
CC[C@H]1OC(=O)[C@@](C)(F)C(=O)[C@H](C)[C@@H](O[C@@H]2O[C@H](C)C[C@H](N(C)C)[C@H]2O)[C@@]2(C)C[C@@H](C)C(=NC(C)=O)[C@H](C)[C@@H](OC/C(=N\OCc3ccc(-c4cccc(N)n4)s3)CO2)[C@]1(C)O [Compound 173, reference compound] | 4 (≈ 4.49 µM) | 4 (≈ 4.49 µM) | 4 (≈ 4.49 µM) | – | – | –
CC[C@H]1OC(=O)[C@H](C)C(=O)[C@H](C)[C@@H](O[C@@H]2O[C@H](C)C[C@H](N(C)C)[C@H]2O)[C@@]2(C)C[C@@H](C)C(=NC(C)=O)[C@H](C)[C@@H](OC/C(=N\OCc3ccc(-c4ncccn4)cc3)CO2)[C@]1(C)O [Compound 193, reference compound] | 64 (≈ 75.1 µM) | 8 (≈ 9.39 µM) | 8 (≈ 9.39 µM) | – | – | –
CCNC(=O)c1cccc(-c2cc(CO/N=C3\CO[C@@H]4[C@@H](C)C(=NC(C)=O)[C@H](C)C[C@@](C)(OC3)[C@H](O[C@@H]3O[C@H](C)C[C@H](N(C)C)[C@H]3O)[C@@H](C)C(=O)[C@@H](C)C(=O)O[C@H](CC)[C@@]4(C)O)on2)n1 [Compound 195, reference compound] | >64 | 32 (≈ 35 µM) | 32 (≈ 35 µM) | – | – | –
CC[C@H]1OC(=O)[C@H](C)C(=O)[C@H](C)[C@@H](O[C@@H]2O[C@H](C)C[C@H](N(C)C)[C@H]2O)[C@@]2(C)C[C@@H](C)C(=NC(C)=O)[C@H](C)[C@@H](OC/C(=N\OCc3ccc(-c4cccs4)nc3)CO2)[C@]1(C)O [Compound 205, reference compound] | >64 | 4 (≈ 4.67 µM) | 8 (≈ 9.33 µM) | – | – | –
CC[C@H]1OC(=O)[C@H](C)C(=O)[C@H](C)[C@@H](O[C@@H]2O[C@H](C)C[C@H](N(C)C)[C@H]2O)[C@@]2(C)C[C@@H](C)C(=NC(C)=O)[C@H](C)[C@@H](OC/C(=N\OCc3ccc(-c4nccs4)nc3)CO2)[C@]1(C)O [Compound 212, reference compound] | 64 (≈ 74.6 µM) | 4 (≈ 4.66 µM) | 8 (≈ 9.32 µM) | – | – | –
CC[C@H]1OC(=O)[C@@](C)(F)C(=O)[C@H](C)[C@@H](O[C@@H]2O[C@H](C)C[C@H](N(C)C)[C@H]2O)[C@@]2(C)C[C@@H](C)C(=NC(C)=O)[C@H](C)[C@@H](OC/C(=N\OCc3ccc(-n4cccn4)nc3)CO2)[C@]1(C)O [Compound 214, reference compound] | 64 (≈ 74.5 µM) | 4 (≈ 4.66 µM) | 8 (≈ 9.31 µM) | – | – | –
CC[C@H]1OC(=O)[C@@](C)(F)C(=O)[C@H](C)[C@@H](O[C@@H]2O[C@H](C)C[C@H](N(C)C)[C@H]2O)[C@@]2(C)C[C@@H](C)C(=NC(C)=O)[C@H](C)[C@@H](OC/C(=N\OCc3ccc(-c4csnn4)cc3)CO2)[C@]1(C)O [Compound 219, reference compound] | 32 (≈ 36.5 µM) | 4 (≈ 4.57 µM) | 4 (≈ 4.57 µM) | – | – | –
CC[C@H]1OC(=O)[C@H](C)C(=O)[C@H](C)[C@@H](O[C@@H]2O[C@H](C)C[C@H](N(C)C)[C@H]2O)[C@@]2(C)C[C@@H](C)C(=NC(C)=O)[C@H](C)[C@@H](OC/C(=N\OCc3ccc(-c4cccc(N)n4)nc3)CO2)[C@]1(C)O [Compound 227, reference compound] | 32 (≈ 36.9 µM) | 4 (≈ 4.61 µM) | 4 (≈ 4.61 µM) | – | – | –
CC[C@H]1OC(=O)[C@H](C)C(=O)[C@H](C)[C@@H](O[C@@H]2O[C@H](C)C[C@H](N(C)C)[C@H]2O)[C@@]2(C)C[C@@H](C)C(=NC(C)=O)[C@H](C)[C@@H](OC/C(=N\OCc3ccc(-c4nnc(N)s4)nc3)CO2)[C@]1(C)O [Compound 234, reference compound] | >64 | 4 (≈ 4.58 µM) | 4 (≈ 4.58 µM) | – | – | –
CC[C@H]1OC(=O)[C@H](C)C(=O)[C@H](C)[C@@H](O[C@@H]2O[C@H](C)C[C@H](N(C)C)[C@H]2O)[C@@]2(C)C[C@@H](C)C(=NC(C)=O)[C@H](C)[C@@H](OC/C(=N\OCc3cnc(-n4cccn4)c(F)c3)CO2)[C@]1(C)O [Compound 259, reference compound] | >64 | 8 (≈ 9.31 µM) | 8 (≈ 9.31 µM) | – | – | –
CCC1OC(=O)C(C)C(=O)C(C)C(OC2OC(C)CC(N(C)C)C2O)C2(C)CC(C)C(=O)C(C)C(OCC(=NOCc3ccn(-c4cccc(N)n4)n3)CO2)C1(C)O (centres unmarked) [Example 58] | – | – | – | 2 (≈ 2.45 µM) | 2 (≈ 2.45 µM) | –
CCC1OC(=O)C(C)(F)C(=O)C(C)C(OC2OC(C)CC(N(C)C)C2O)C2(C)CC(C)C(=NC(C)=O)C(C)C(OCC(=NOCc3ccn(-c4cccc(N)n4)n3)CO2)C1(C)O (centres unmarked) [Example 59] | – | – | – | 2 (≈ 2.29 µM) | 2 (≈ 2.29 µM) | –
CCC1OC(=O)C(C)C(=O)C(C)C(OC2OC(C)CC(N(C)C)C2O)C2(C)CC(C)C(=O)C(C)C(OCC(=NOCc3ccc(-c4coc(N)n4)nc3)CO2)C1(C)O (centres unmarked) [Example 60] | – | – | – | 2 (≈ 2.45 µM) | 2 (≈ 2.45 µM) | –
CCC1OC(=O)C(C)C(=O)C(C)C(OC2OC(C)CC(N(C)C)C2O)C2(C)CC(C)C(=O)C(C)C(OCC(=NOCc3ccc(-c4nc(N)ns4)nc3)CO2)C1(C)O (centres unmarked) [Example 61] | – | – | – | 2 (≈ 2.4 µM) | 2 (≈ 2.4 µM) | –
CCC1OC(=O)C(C)C(=O)C(C)C(OC2OC(C)CC(N(C)C)C2O)C2(C)CC(C)C(=O)C(C)C(OCC(=NOCc3ccc(-c4noc(N)n4)nc3)CO2)C1(C)O (centres unmarked) [Example 62] | – | – | – | 2 (≈ 2.45 µM) | 2 (≈ 2.45 µM) | –
CCC1OC(=O)C(C)C(=O)C(C)C(OC2OC(C)CC(N(C)C)C2O)C2(C)CC(C)C(=O)C(C)C(OCC(=NOCc3ncc(-c4cccc(N)n4)s3)CO2)C1(C)O (centres unmarked) [Example 63] | – | – | – | 2 (≈ 2.4 µM) | 1 (≈ 1.2 µM) | –
CCC1OC(=O)C(C)(F)C(=O)C(C)C(OC2OC(C)CC(N(C)C)C2O)C2(C)CC(C)C(=O)C(C)C(OCC(=NOCc3cnc(-c4nc(N)ns4)cn3)CO2)C1(C)O (centres unmarked) [Example 64] | – | – | – | 2 (≈ 2.35 µM) | 1 (≈ 1.17 µM) | –
CCC(=O)N=C1C(C)CC2(C)OCC(=NOCc3cnc(-c4cccc(N)n4)o3)COC(C1C)C(C)(O)C(CC)OC(=O)C(C)(F)C(=O)C(C)C2OC1OC(C)CC(N(C)C)C1O (centres unmarked) [Example 65] | – | – | – | 4 (≈ 4.5 µM) | 1 (≈ 1.12 µM) | –
CCC(=O)N=C1C(C)CC2(C)OCC(=NOCc3cnc(-c4nsc(N)n4)cn3)COC(C1C)C(C)(O)C(CC)OC(=O)C(C)(F)C(=O)C(C)C2OC1OC(C)CC(N(C)C)C1O (centres unmarked) [Example 67] | – | – | – | 4 (≈ 4.41 µM) | 2 (≈ 2.2 µM) | –
CCC1OC(=O)C(C)C(=O)C(C)C(OC2OC(C)CC(N(C)C)C2O)C2(C)CC(C)C(=O)C(C)C(OCC(=NOCc3cnc(-c4nsc(N)n4)cn3)CO2)C1(C)O (centres unmarked) [Example 68] | – | – | – | 2 (≈ 2.4 µM) | 2 (≈ 2.4 µM) | –
CCC1OC(=O)C(C)C(=O)C(C)C(OC2OC(C)CC(N(C)C)C2O)C2(C)CC(C)C(=NC(C)=O)C(C)C(OCC(=NOCc3cnc(-c4cccc(N)n4)o3)CO2)C1(C)O (centres unmarked) [Example 70] | – | – | – | 2 (≈ 2.33 µM) | 2 (≈ 2.33 µM) | –
CCC1OC(=O)C(C)C(=O)C(C)C(OC2OC(C)CC(N(C)C)C2O)C2(C)CC(C)C(=O)C(C)C(OCC(=NOCc3csc(-c4cccc(N)n4)n3)CO2)C1(C)O (centres unmarked) [Example 71] | – | – | – | 2 (≈ 2.4 µM) | – | –
